Test systems include MDA-MB-231 breast; OVCAR-8 ovarian; RXF 393 renal; RPMI-8226 leukemia; HCT-15 colon; SK-MEL-2 melanoma; K-562 leukemia; SF-295 CNS; U251 CNS; OVCAR-3 ovarian.
Common to all, as to test: DTP human tumour cell line panel, 48 h

SMILES strings stand for the structures. Where “and” joins values, the source holds several entries; their conditions need not be identical. Equal entries are not always repeated.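 In this assay, cells in 96-well plates receive the compound at five concentrations for 48 hours. Endpoints are linearly interpolated between the surrounding concentrations. GI50 = concentration required for 50% inhibition of growth. At the TGI there is no net growth.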

As a reminder, the GI50 is the concentration at which growth is held to half of that of the control. Broadly, the TGI is the concentration giving total growth inhibition. Low values mean greater sensitivity of the cells, high ones lower sensitivity of the cells. With `CCS(=O)(=O)c1ccc(OC)c(Nc2nccc(N(C)c3ccc4c(C)[nH]nc4c3)n2)c1`, the GI50 in the assay with MDA-MB-231 breast is 3.66 µM; with OVCAR-8 ovarian it was 7.22 µM; with RXF 393 renal, 2.7 µM; with RPMI-8226 leukemia, 8.35 µM; in the assay on HCT-15 colon, 5.3 µM; in the assay on SK-MEL-2 melanoma, 5.45 µM. The GI50 with K-562 leukemia was 2.79 µM; with SF-295 CNS it was 4.17 µM; with U251 CNS, 7.28 µM; with OVCAR-3 ovarian, 7.42 µM. The TGI is 9.45 µM in the assay on MDA-MB-231 breast; greater than 22.2 µM in the assay with OVCAR-8 ovarian; 7.81 µM in the assay on RXF 393 renal; greater than 25 µM with RPMI-8226 leukemia; 18.3 µM in the assay on HCT-15 colon; 14.9 µM with SK-MEL-2 melanoma. The TGI was 16.8 µM with K-562 leukemia, 10.4 µM with SF-295 CNS, greater than 25 µM in the assay on U251 CNS and greater than 25 µM in the assay on OVCAR-3 ovarian.
In the case of `CCN(CC)CCCC(C)Nc1cnc(C(=O)Nc2cc(F)cc3cccnc23)cn1` (stereo not drawn), the GI50 is 3.42 µM and 0.568 µM with MDA-MB-231 breast; 7.03 µM and 1.29 µM in the assay on OVCAR-8 ovarian; 4.26 µM and 1.32 µM with RXF 393 renal; 2.97 µM and 0.502 µM in the assay on RPMI-8226 leukemia; 3.45 µM and 0.751 µM in the assay on HCT-15 colon; 3.78 µM and 2.55 µM with SK-MEL-2 melanoma. Further, the GI50 is 1.95 µM and 0.46 µM in the assay with K-562 leukemia; 12.7 µM and 1.81 µM in the assay with SF-295 CNS; 5.72 µM and 1.56 µM with U251 CNS; 2.14 µM and 0.349 µM with OVCAR-3 ovarian. For the same compound, the TGI was 12.8 µM and 2.02 µM in the assay on MDA-MB-231 breast; 20.2 µM and 5.77 µM in the assay on OVCAR-8 ovarian; 16.9 µM and 2.69 µM in the assay on RXF 393 renal; 12.2 µM and > 20.5 µM in the assay with RPMI-8226 leukemia; 13.8 µM and 2.69 µM with HCT-15 colon; 10.8 µM and 6.39 µM in the assay with SK-MEL-2 melanoma. Also, the TGI in the assay on K-562 leukemia is 4.97 µM and > 32.5 µM; in the assay with SF-295 CNS it was 26.4 µM and 3.33 µM; in the assay with U251 CNS it was 18.4 µM and 3.01 µM; with OVCAR-3 ovarian it was 6.79 µM and 1.23 µM.
Regarding `N#CC(C#N)=CN1CCN(C(=O)c2ccccc2)C1=S`, the GI50 in the assay on MDA-MB-231 breast was 36.1 µM; with OVCAR-8 ovarian it was 77 µM; in the assay with RXF 393 renal, 22.7 µM; with RPMI-8226 leukemia, 35.3 µM; with HCT-15 colon it was 36.4 µM; in the assay with SK-MEL-2 melanoma it was 18.4 µM. In addition, the GI50 in the assay with K-562 leukemia is 79.5 µM; in the assay with SF-295 CNS, 46.2 µM; in the assay on U251 CNS it was 38.2 µM; in the assay with OVCAR-3 ovarian it was 36.4 µM. In addition, the TGI was greater than 100 µM in the assay with MDA-MB-231 breast; greater than 100 µM in the assay on OVCAR-8 ovarian; 70.7 µM in the assay with RXF 393 renal; greater than 100 µM with RPMI-8226 leukemia; greater than 100 µM in the assay on HCT-15 colon; 68.4 µM in the assay with SK-MEL-2 melanoma. Moreover, the concentration for total growth inhibition (TGI) with K-562 leukemia, with SF-295 CNS, in the assay with U251 CNS and in the assay with OVCAR-3 ovarian was greater than 100 µM in each case.
Turning to `COc1ccc(C2=C(c3cn(C)c4ccccc34)C(=O)NC2=O)cc1OC`, the GI50 with MDA-MB-231 breast is 10.7 µM; in the assay on OVCAR-8 ovarian, 15.6 µM; in the assay on RXF 393 renal it was 6.44 µM; in the assay on RPMI-8226 leukemia it was 9.61 µM; with HCT-15 colon it was 6.4 µM; in the assay on SK-MEL-2 melanoma, 6.18 µM. The GI50 in the assay with K-562 leukemia is 4.92 µM; in the assay on SF-295 CNS it was 10.4 µM; in the assay with U251 CNS, 7.62 µM; in the assay with OVCAR-3 ovarian it was 7.57 µM. Besides, the total growth inhibition concentration (TGI) in the assay with MDA-MB-231 breast was greater than 25 µM; in the assay with OVCAR-8 ovarian, greater than 25 µM; in the assay with RXF 393 renal, greater than 25 µM; in the assay on RPMI-8226 leukemia, greater than 25 µM; in the assay with HCT-15 colon it was greater than 25 µM; in the assay on SK-MEL-2 melanoma, greater than 18.6 µM. For the same compound, the concentration for total growth inhibition (TGI) in the assay with K-562 leukemia, in the assay with SF-295 CNS, in the assay with U251 CNS and in the assay with OVCAR-3 ovarian was greater than 25 µM throughout.
For the compound `COC[C@H]1OC(=O)c2coc3c2[C@@]1(C)C1=C(C3=O)[C@@H]2CCC(=O)[C@@]2(C)C[C@H]1OC(C)=O`, the results for the GI50 in the assay with MDA-MB-231 breast, with RXF 393 renal and with U251 CNS were 14.4 µM, 0.264 µM and 36.8 µM, respectively. Also, the TGI is greater than 100 µM in the assay with MDA-MB-231 breast; greater than 100 µM in the assay on OVCAR-8 ovarian; 3.07 µM in the assay on RXF 393 renal; greater than 63.6 µM in the assay on RPMI-8226 leukemia; greater than 100 µM in the assay on HCT-15 colon; 16.6 µM in the assay on SK-MEL-2 melanoma. For the same compound, the TGI in the assay on K-562 leukemia is greater than 100 µM; in the assay on SF-295 CNS, 63.1 µM; with U251 CNS, greater than 100 µM; in the assay with OVCAR-3 ovarian, greater than 78.1 µM.
As to `CN1CCN(Cc2ccc(NC(=O)c3[nH]ncc3Nc3ncnc4c3CCC4)cc2)CC1`, the GI50 with MDA-MB-231 breast is 2.98 µM; in the assay on OVCAR-8 ovarian, 3.27 µM; in the assay with RXF 393 renal it was 1.4 µM; in the assay with RPMI-8226 leukemia, 2.82 µM; in the assay with HCT-15 colon, 1.67 µM; in the assay with SK-MEL-2 melanoma, 2.14 µM. In addition, the GI50 in the assay with K-562 leukemia is 0.648 µM; with SF-295 CNS, 2.24 µM; with U251 CNS, 1.48 µM; in the assay on OVCAR-3 ovarian it was 1.09 µM. Also, the TGI was determined as 7.8 µM in the assay on MDA-MB-231 breast; 13.5 µM with OVCAR-8 ovarian; 3.23 µM in the assay on RXF 393 renal; 7.39 µM in the assay on RPMI-8226 leukemia; 12.6 µM with HCT-15 colon; 6.63 µM in the assay on SK-MEL-2 melanoma. Besides, the concentration for total growth inhibition (TGI) turned out to be 12.1 µM in the assay on K-562 leukemia, 12 µM with SF-295 CNS, 12.4 µM in the assay with U251 CNS and 4.6 µM in the assay on OVCAR-3 ovarian.
As for `CCc1nc2ccc(Cc3ccc(C(=O)NO)cc3)cc2c(=O)n1CCc1ccccc1`, the GI50 was 1.31 µM in the assay on MDA-MB-231 breast; 0.584 µM in the assay with OVCAR-8 ovarian; 0.741 µM in the assay with RXF 393 renal; 1.07 µM with RPMI-8226 leukemia; 0.528 µM in the assay with HCT-15 colon; 1.62 µM in the assay with SK-MEL-2 melanoma. The GI50 is 1.02 µM with K-562 leukemia, 1.02 µM in the assay on SF-295 CNS, 0.963 µM with U251 CNS and 1.15 µM in the assay on OVCAR-3 ovarian. Also, the TGI with MDA-MB-231 breast amounted to 3.98 µM; with OVCAR-8 ovarian, 4.16 µM; in the assay on RXF 393 renal it was 2.3 µM; in the assay on RPMI-8226 leukemia it was 10.3 µM; in the assay on HCT-15 colon, 3.07 µM; in the assay on SK-MEL-2 melanoma, 3.95 µM. Besides, the TGI in the assay on K-562 leukemia was greater than 100 µM; in the assay on SF-295 CNS, 2.6 µM; with U251 CNS, 2.28 µM; with OVCAR-3 ovarian, 3.85 µM.

Source of the values: PubChem BioAssay (NCI).
